Consider eleven compounds from publication PMC10907560, “Significant reduction of activity retention in the kidneys via optimized linker sequences in radiohybrid-based minigastrin analogs” (EJNMMI Research, 2024).

Values joined by “and” are separate entries in the source; they are usually repeats but may differ in a detail not shown here. Equal values may be shown once. Numbered stars: 1 amine (or outer) side, 2 acyl side, 3 side chain; on linkers, the order of the positions; unused ones are H or OH. Square brackets hold non-standard residues; d marks the D form. Peptide text beside a SMILES is read from it. * marks the point of attachment. Benzoyl(4-SiFtBu2) = CC(C)(C)[Si](F)(c1ccc(C(=O)*)cc1)C(C)(C)C; DOTA = O=C(O)CN1CCN(CC(=O)O)CCN(CC(=O)*)CCN(CC(=O)O)CC1; PEG12 = NCCOCCOCCOCCOCCOCCOCCOCCOCCOCCOCCOCCOCCC(=O)O; d(γGlu) = O=C(O)[C@@H](CCC(=O)[*:2])N[*:1]; PEG8 = NCCOCCOCCOCCOCCOCCOCCOCCOCCC(=O)O; 1Nal = N[C@@H](Cc1cccc2ccccc12)C(=O)O; PEG5 = NCCOCCOCCOCCOCCOCCC(=O)O; NMeNle = CCCC[C@H](NC)C(=O)O; PEG4 = NCCOCCOCCOCCOCCC(=O)O; dDap = NC[C@@H](N)C(=O)O

In data set [1] the test system is AR42J tumor-bearing CB17-SCID mice. To be noted: 24 h p.i.; cited from earlier work.
Data set [2] concerns the target T1, Human serum albumin (HSA) (Homo sapiens, UniProt P02768).
T1 construct: purchased Daicel, Tokyo, Japan H13H-2433
Kind of data set: Human serum albumin binding via high performance affinity chromatography (HPAC). The format is in vitro ADME. The settings on record: Chiralpak HSA column. As for the experimental part: Human serum albumin (HSA) binding was determined via high performance affinity chromatography (HPAC), according to previously published protocols. Human serum albumin interaction was calculated according to the retention time (n = 1) of our compounds on a Chiralpak HSA column in dependence of nine reference compounds with known HSA interaction.
Human serum albumin binding was determined via high performance affinity chromatography. Therefore, a Chiralpak HSA column (50 × 3 mm, 5 µm, H13H-2433, Daicel, Tokyo, Japan) was used at a constant flow rate of 0.5 ml/min at room temperature. Mobile phase A consisted of a freshly prepared aqueous solution of NH4OAc (pH = 6.9, 50 mM) and mobile phase B of isopropanol. Calibration of the column was performed daily prior to experiments, by determining the retention times of nine reference substances displaying a HSA binding from 13 to 99%. HPLC gradient for all compounds tested was 100% A (0 to 3 min), followed by 80% A (3 to 40 min). All substances tested, were dissolved in a mixture of A/B (0.5 mg/mL, 1:1, v/v). OriginPro 2016G software (Northampton, United States) was used for non-linear regression and data evaluation.

A short description of data set [3]: Lipophilicity, n-octanol/PBS distribution coefficient logD7.4. To be noted: 177Lu-labeled peptide; n-octanol/PBS (1/1), n ≥ 5. The format is physicochemical. On the procedure:
For determination of lipophilicity, the respective ^177Lu-Labeled peptide precursor (~ 1 MBq, 10 µL in 0.04 M HCl) was added to a solution of n-octanol/PBS (1/1, v/v, 1 mL) and vigourously mixed for 3 min at room temperature (n ≥ 5). Afterwards both phases were seperated using a Biofuge 15 centrifuge (Heraus Sepatech GmbH, Osterode, Germany) at 9,000 rpm for 5 min. 200 µL aliquots of both layers were collected separately, measured in a γ-counter (Perkin Elmer, Waltham, MA, USA) and the logD7.4 value was obtained.

T1 sequence (P02768 25-609): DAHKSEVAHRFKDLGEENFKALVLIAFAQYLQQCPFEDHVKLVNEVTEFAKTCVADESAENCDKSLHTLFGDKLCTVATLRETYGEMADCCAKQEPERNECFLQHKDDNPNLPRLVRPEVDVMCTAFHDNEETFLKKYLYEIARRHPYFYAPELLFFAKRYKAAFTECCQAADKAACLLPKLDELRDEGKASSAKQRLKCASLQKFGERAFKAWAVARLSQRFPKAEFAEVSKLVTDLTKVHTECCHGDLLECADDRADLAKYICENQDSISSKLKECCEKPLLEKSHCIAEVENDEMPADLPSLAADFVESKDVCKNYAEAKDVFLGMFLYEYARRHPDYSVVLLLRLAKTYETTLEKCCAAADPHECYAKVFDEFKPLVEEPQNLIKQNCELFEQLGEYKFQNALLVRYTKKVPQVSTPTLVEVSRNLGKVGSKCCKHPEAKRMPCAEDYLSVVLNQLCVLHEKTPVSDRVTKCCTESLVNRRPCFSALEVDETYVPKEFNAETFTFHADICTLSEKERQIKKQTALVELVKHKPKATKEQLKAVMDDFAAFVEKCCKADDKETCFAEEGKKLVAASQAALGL

As to `CCCC[C@H](NC(=O)[C@H](Cc1c[nH]c2ccccc12)NC(=O)CNC(=O)[C@H](Cc1ccc(O)cc1)NC(=O)[C@H](C)NC(=O)CC[C@@H](NC(=O)CC[C@@H](NC(=O)CC[C@@H](NC(=O)CC[C@@H](NC(=O)CC[C@@H](NC(=O)CC[C@@H](NC(=O)CC[C@@H](NC(=O)CC[C@@H](NC(=O)[C@@H](CNC(=O)c1ccc([Si](F)(C(C)(C)C)C(C)(C)C)cc1)NC(=O)CN1CCN(CC(=O)O)CCN(CC(=O)O)CCN(CC(=O)O)CC1)C(=O)O)C(=O)O)C(=O)O)C(=O)O)C(=O)O)C(=O)O)C(=O)O)C(=O)O)C(=O)N[C@@H](CC(=O)O)C(=O)N[C@@H](Cc1ccccc1)C(N)=O` [[^177Lu]Lu-DOTA-rhCCK-18, DOTA-D-Dap(p-SiFA)-(D-γ-Glu)8-Ala-Tyr-Gly-Trp-Nle-Asp-Phe-NH2, metal not drawn], in data set [1], the “activity levels in the bone” value is reported as 0.20 ± 0.03 %ID/g, the “activity levels in the liver” value is on record as 0.22 ± 0.01 %ID/g, the “activity levels in the spleen” value is 0.34 ± 0.09 %ID/g and the “activity levels in the stomach” value is on record as 4.3 ± 1.1 %ID/g. For the same compound, in data set [1], the “activity levels in the tumor” value is 25.4 ± 4.7 %ID/g, the “activity uptake in the kidneys” value is 134 ± 18 %ID/g and the tumor-to-kidney ratio is listed as 0.19 ± 0.01. In addition, the HSA binding in data set [2] (n = 1, listed as [^natLu]Lu-DOTA-rhCCK-18) was 87.1% and 87%.

As for `CCCC[C@@H](C(=O)N[C@@H](CC(=O)O)C(=O)N[C@@H](Cc1cccc2ccccc12)C(N)=O)N(C)C(=O)[C@H](Cc1c[nH]c2ccccc12)NC(=O)CCOCCOCCOCCOCCNC(=O)CC[C@@H](NC(=O)CCOCCOCCOCCOCCOCCNC(=O)[C@@H](CNC(=O)c1ccc([Si](F)(C(C)(C)C)C(C)(C)C)cc1)NC(=O)CN1CCN(CC(=O)O)CCN(CC(=O)O)CCN(CC(=O)O)CC1)C(=O)O` [[^nat/177Lu]Lu-DOTA-rhCCK-67, DOTA-D-Dap(p-SiFA)-(PEG)4-B, metal not drawn] ({DOTA}-[dDap](Benzoyl(4-SiFtBu2))[PEG5][d(γGlu)][PEG4]W[NMeNle]D[1Nal]-NH2), the logD in data set [3] is -1.05 ± 0.09. The HSA binding in data set [2] (n = 1) worked out at 92.9%.

On to `CCCC[C@@H](C(=O)N[C@@H](CC(=O)O)C(=O)N[C@@H](Cc1cccc2ccccc12)C(N)=O)N(C)C(=O)[C@H](Cc1c[nH]c2ccccc12)NC(=O)CCOCCOCCOCCOCCNC(=O)CC[C@@H](NC(=O)CCOCCOCCOCCOCCOCCNC(=O)CC[C@@H](NC(=O)[C@@H](CNC(=O)c1ccc([Si](F)(C(C)(C)C)C(C)(C)C)cc1)NC(=O)CN1CCN(CC(=O)O)CCN(CC(=O)O)CCN(CC(=O)O)CC1)C(=O)O)C(=O)O` [[^nat/177Lu]Lu-DOTA-rhCCK-68, DOTA-D-Dap(p-SiFA)-D-γ-Glu-(PEG)4-B, metal not drawn], for which, in data set [3], the logD is -1.65 ± 0.09. Also, the HSA binding in data set [2] (n = 1) stood at 91.2%.

Take `CCCC[C@@H](C(=O)N[C@@H](CC(=O)O)C(=O)N[C@@H](Cc1cccc2ccccc12)C(N)=O)N(C)C(=O)[C@H](Cc1c[nH]c2ccccc12)NC(=O)CCOCCOCCOCCOCCNC(=O)CC[C@@H](NC(=O)CCOCCOCCOCCOCCOCCOCCOCCOCCNC(=O)CC[C@@H](NC(=O)[C@@H](CNC(=O)C[N+](C)(C)Cc1ccc([Si](F)(C(C)(C)C)C(C)(C)C)cc1)NC(=O)CN1CCN(CC(=O)O)CCN(CC(=O)O)CCN(CC(=O)O)CC1)C(=O)O)C(=O)O` [[^nat/177Lu]Lu-DOTA-rhCCK-71, DOTA-D-Dap(SiFAlin)-D-γ-Glu-(PEG)7-B, metal not drawn]: in data set [3], the logD was -1.63 ± 0.06. In data set [2] (n = 1), this compound gave an HSA binding of 89.1%.

On to `CCCC[C@@H](C(=O)N[C@@H](CC(=O)O)C(=O)N[C@@H](Cc1cccc2ccccc12)C(N)=O)N(C)C(=O)[C@H](Cc1c[nH]c2ccccc12)NC(=O)CCOCCOCCOCCOCCNC(=O)CC[C@@H](NC(=O)CCOCCOCCOCCOCCOCCOCCOCCOCCNC(=O)CC[C@@H](NC(=O)[C@@H](CNC(=O)c1cc(C(=O)O)cc([Si](F)(C(C)(C)C)C(C)(C)C)c1)NC(=O)CN1CCN(CC(=O)O)CCN(CC(=O)O)CCN(CC(=O)O)CC1)C(=O)O)C(=O)O` [[^nat/177Lu]Lu-DOTA-rhCCK-72, DOTA-D-Dap(SiFA-ipa)-D-γ-Glu-(PEG)7-B, metal not drawn], for which the logD in data set [3] was -2.32 ± 0.03. Also, the HSA binding in data set [2] (n = 1) was determined as 89.3%.

As to `CCCC[C@@H](C(=O)N[C@@H](CC(=O)O)C(=O)N[C@@H](Cc1cccc2ccccc12)C(N)=O)N(C)C(=O)[C@H](Cc1c[nH]c2ccccc12)NC(=O)CCOCCOCCOCCOCCNC(=O)CC[C@@H](NC(=O)CCOCCOCCOCCOCCOCCOCCOCCOCCNC(=O)[C@@H](CNC(=O)c1ccc([Si](F)(C(C)(C)C)C(C)(C)C)cc1)NC(=O)CN1CCN(CC(=O)O)CCN(CC(=O)O)CCN(CC(=O)O)CC1)C(=O)O` [[^nat/177Lu]Lu-DOTA-rhCCK-73, DOTA-D-Dap(p-SiFA)-(PEG)7-B, metal not drawn] ({DOTA}-[dDap](Benzoyl(4-SiFtBu2))[PEG8][d(γGlu)][PEG4]W[NMeNle]D[1Nal]-NH2), the logD in data set [3] is -1.02 ± 0.06. The HSA binding in data set [2] (n = 1) came out at 90.4%.

For `CCCC[C@@H](C(=O)N[C@@H](CC(=O)O)C(=O)N[C@@H](Cc1cccc2ccccc12)C(N)=O)N(C)C(=O)[C@H](Cc1c[nH]c2ccccc12)NC(=O)CCOCCOCCOCCOCCNC(=O)CC[C@@H](NC(=O)CCOCCOCCOCCOCCOCCOCCOCCOCCOCCOCCOCCOCCNC(=O)[C@@H](CNC(=O)c1ccc([Si](F)(C(C)(C)C)C(C)(C)C)cc1)NC(=O)CN1CCN(CC(=O)O)CCN(CC(=O)O)CCN(CC(=O)O)CC1)C(=O)O` [[^nat/177Lu]Lu-DOTA-rhCCK-74, DOTA-D-Dap(p-SiFA)-(PEG)11-B, metal not drawn] ({DOTA}-[dDap](Benzoyl(4-SiFtBu2))[PEG12][d(γGlu)][PEG4]W[NMeNle]D[1Nal]-NH2), the logD in data set [3] is -1.19 ± 0.07. Further, the HSA binding in data set [2] (n = 1) turned out to be 87.2%.

With `CCCC[C@@H](C(=O)N[C@@H](CC(=O)O)C(=O)N[C@@H](Cc1cccc2ccccc12)C(N)=O)N(C)C(=O)[C@H](Cc1c[nH]c2ccccc12)NC(=O)CCOCCOCCOCCOCCNC(=O)CC[C@@H](NC(=O)CCOCCOCCOCCOCCOCCOCCOCCOCCOCCOCCOCCOCCNC(=O)CC[C@@H](NC(=O)[C@@H](CNC(=O)C[N+](C)(C)Cc1ccc([Si](F)(C(C)(C)C)C(C)(C)C)cc1)NC(=O)CN1CCN(CC(=O)O)CCN(CC(=O)O)CCN(CC(=O)O)CC1)C(=O)O)C(=O)O` [[^nat/177Lu]Lu-DOTA-rhCCK-75, DOTA-D-Dap(SiFAlin)-D-γ-Glu-(PEG)11-B, metal not drawn], in data set [3], the logD is -1.15 ± 0.05. Besides, the HSA binding in data set [2] (n = 1) came out at 90.9%.

`CCCC[C@@H](C(=O)N[C@@H](CC(=O)O)C(=O)N[C@@H](Cc1cccc2ccccc12)C(N)=O)N(C)C(=O)[C@H](Cc1c[nH]c2ccccc12)NC(=O)CCOCCOCCOCCOCCNC(=O)CC[C@@H](NC(=O)CCOCCOCCOCCOCCOCCOCCOCCOCCOCCOCCOCCOCCNC(=O)CC[C@@H](NC(=O)[C@@H](CNC(=O)c1ccc([Si](F)(C(C)(C)C)C(C)(C)C)cc1)NC(=O)CN1CCN(CC(=O)O)CCN(CC(=O)O)CCN(CC(=O)O)CC1)C(=O)O)C(=O)O` [[^nat/177Lu]Lu-DOTA-rhCCK-76, DOTA-D-Dap(p-SiFA)-D-γ-Glu-(PEG)11-B, metal not drawn]: in data set [3], the logD is -1.82 ± 0.09. The same compound displayed an HSA binding in data set [2] (n = 1) of 86.2%.

As for “DOTA-(D-Glu)6-Ala-Tyr-Gly-Trp-Nle-Asp-Phe-NH2 [[^177Lu]Lu-DOTA-PP-F11N]”, in data set [1], the “activity levels in the tumor” value is recorded as 1.9 ± 0.8 %ID/g and the kidney retention is 3.1 ± 0.6 %ID/g.

Take “DOTA-D-Glu-Ala-Tyr-Gly-Trp-(N-Me)Nle-Asp-1-Nal-NH2 [[^177Lu]Lu-DOTA-MGS5]”: in data set [1], the “activity levels in the tumor” value was 11.0 ± 1.2 %ID/g, the kidney retention is 1.3 ± 0.4 %ID/g, the tumor-to-kidney ratio is given as 9.4 ± 3.3 and the tumor-to-stomach ratio is 4.4 ± 0.7.

By logD is commonly meant the decadic logarithm of the distribution of all forms, ionised or not, between an organic phase and buffer at a given pH.
